According to ChEMBL document CHEMBL1201862, “PubChem BioAssay data set” (2004):
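Exposure lasted 48 hours, with cells grown in 96-well plates and compounds tested at five concentrations. GI50: concentration for 50% inhibition of growth.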 Calls of active or inactive are those of the source. Rule as the data show it: active = GI50 up to about 1.1 µM and inactive = higher.

Tests used:
Assay in all cases: NCI anticancer screen, dose series, 48 h
786-0 = system: 786-0
A498 = system: A498
A549 = system: A549
ACHN = system: ACHN
CAKI-1 = system: CAKI-1
CCRF-CEM = system: CCRF-CEM
COLO 205 = system: COLO 205
DU-145 = system: DU-145
EKVX = system: EKVX
HCC 2998 = system: HCC 2998
HCT-15 = system: HCT-15
HL-60 = system: HL-60
HOP-62 = system: HOP-62
HOP-92 = system: HOP-92
HT-29 = system: HT-29
Hs-578T = system: Hs-578T
K562 = system: K562
KM12 = system: KM12
LOX IMVI = system: LOX IMVI
M14 = system: M14
MCF7 = system: MCF7
MDA-MB-231 = system: MDA-MB-231
MDA-MB-435 = system: MDA-MB-435
MDA-N = system: MDA-N
MOLT-4 = system: MOLT-4
Malme-3M = system: Malme-3M
NCI-H226 = system: NCI-H226
NCI-H23 = system: NCI-H23
NCI-H460 = system: NCI-H460
NCI/ADR-RES = system: NCI/ADR-RES
OVCAR-3 = system: OVCAR-3
OVCAR-4 = system: OVCAR-4
OVCAR-5 = system: OVCAR-5
OVCAR-8 = system: OVCAR-8
PC-3 = system: PC-3
RPMI-8226 = system: RPMI-8226
RXF 393 = system: RXF 393
SF-268 = system: SF-268
SF-295 = system: SF-295
SF-539 = system: SF-539
SK-MEL-28 = system: SK-MEL-28
SK-MEL-2 = system: SK-MEL-2
SK-MEL-5 = system: SK-MEL-5
SK-OV-3 = system: SK-OV-3
SN12C = system: SN12C
SNB-19 = system: SNB-19
SNB-75 = system: SNB-75
SR = system: SR
SW-620 = system: SW-620
T47D = system: T47D
TK-10 = system: TK-10
U-251 = system: U-251
UACC-257 = system: UACC-257
UACC-62 = system: UACC-62
UO-31 = system: UO-31
HCT-116 = system: HCT-116
IGROV-1 = system: IGROV-1
NCI-H522 = system: NCI-H522

Cc1ccc(S(=O)(=O)N(CC(O)COc2ccccc2)c2c(F)cccc2F)cc1 (configuration not stated)
GI50 (786-0): 20.7 µM (inactive)
GI50 (A498): 19.6 µM (inactive)
GI50 (A549): 17.3 µM (inactive)
GI50 (ACHN): 17.3 µM (inactive)
GI50 (CAKI-1): 14.3 µM (inactive)
GI50 (CCRF-CEM): 28.7 µM (inactive)
GI50 (COLO 205): 14.7 µM (inactive)
GI50 (DU-145): 24.9 µM (inactive)
GI50 (EKVX): 23.3 µM (inactive)
GI50 (HCC 2998): 21.1 µM (inactive)
GI50 (HCT-15): 16.1 µM
GI50 (HL-60): 29.4 µM (inactive)
GI50 (HOP-62): 19.2 µM (inactive)
GI50 (HOP-92): 0.114 µM (active)
GI50 (HT-29): 17.4 µM (inactive)
GI50 (Hs-578T): 20 µM (inactive)
GI50 (K562): 37.3 µM (inactive)
GI50 (KM12): 17.7 µM (inactive)
GI50 (LOX IMVI): 15.2 µM (inactive)
GI50 (M14): 15.5 µM (inactive)
GI50 (MCF7): 15.7 µM (inactive)
GI50 (MDA-MB-231): 17.9 µM (inactive)
GI50 (MDA-MB-435): 15.4 µM (inactive)
GI50 (MDA-N): 15.8 µM (inactive)
GI50 (MOLT-4): 28.3 µM (inactive)
GI50 (Malme-3M): 21 µM (inactive)
GI50 (NCI-H226): 21.9 µM (inactive)
GI50 (NCI-H23): 18.5 µM (inactive)
GI50 (NCI-H460): 15.1 µM (inactive)
GI50 (NCI/ADR-RES): 17.5 µM (inactive)
GI50 (OVCAR-3): 11.6 µM (inactive)
GI50 (OVCAR-4): 13.2 µM (inactive)
GI50 (OVCAR-5): 38 µM (inactive)
GI50 (OVCAR-8): 17 µM (inactive)
GI50 (PC-3): 14.3 µM (inactive)
GI50 (RPMI-8226): 14.4 µM (inactive)
GI50 (RXF 393): 10.5 µM (inactive)
GI50 (SF-268): 17.1 µM (inactive)
GI50 (SF-295): 29.2 µM (inactive)
GI50 (SF-539): 16.9 µM (inactive)
GI50 (SK-MEL-28): 16.3 µM (inactive)
GI50 (SK-MEL-2): 16.6 µM (inactive)
GI50 (SK-MEL-5): 13.8 µM (inactive)
GI50 (SK-OV-3): 18.5 µM (inactive)
GI50 (SN12C): 21.1 µM (inactive)
GI50 (SNB-19): 33.3 µM (inactive)
GI50 (SNB-75): 18.9 µM (inactive)
GI50 (SR): 21.8 µM (inactive)
GI50 (SW-620): 23 µM (inactive)
GI50 (T47D): 2.21 µM (inactive)
GI50 (TK-10): 33.7 µM (inactive)
GI50 (U-251): 15.7 µM (inactive)
GI50 (UACC-257): 21.8 µM (inactive)
GI50 (UACC-62): 14.8 µM (inactive)
GI50 (UO-31): 15.7 µM (inactive)

O=c1oc2c/c(=C\c3ccccn3)c(=O)c3cccc1c3-2
GI50 (786-0): 14.6 µM (inactive)
GI50 (ACHN): 44.7 µM (inactive)
GI50 (CAKI-1): > 100 µM (inactive)
GI50 (CCRF-CEM): 33.8 µM (inactive)
GI50 (COLO 205): > 100 µM (inactive)
GI50 (DU-145): > 100 µM (inactive)
GI50 (EKVX): > 100 µM (inactive)
GI50 (HCC 2998): > 100 µM (inactive)
GI50 (HCT-116): 35.2 µM (inactive)
GI50 (HCT-15): > 100 µM
GI50 (HL-60): > 100 µM (inactive)
GI50 (HOP-62): 15.4 µM (inactive)
GI50 (HOP-92): > 100 µM (inactive)
GI50 (HT-29): > 100 µM (inactive)
GI50 (Hs-578T): > 100 µM (inactive)
GI50 (IGROV-1): 90.8 µM (inactive)
GI50 (K562): > 100 µM (inactive)
GI50 (KM12): 50.4 µM (inactive)
GI50 (LOX IMVI): 29 µM (inactive)
GI50 (M14): > 100 µM (inactive)
GI50 (MCF7): > 100 µM (inactive)
GI50 (MDA-MB-231): 31.8 µM (inactive)
GI50 (MDA-MB-435): > 100 µM (inactive)
GI50 (MDA-N): > 100 µM (inactive)
GI50 (MOLT-4): 49.3 µM (inactive)
GI50 (Malme-3M): 72.3 µM (inactive)
GI50 (NCI-H226): 28.3 µM (inactive)
GI50 (NCI-H23): > 100 µM (inactive)
GI50 (NCI-H460): > 100 µM (inactive)
GI50 (NCI-H522): 16.1 µM (inactive)
GI50 (NCI/ADR-RES): 52.7 µM (inactive)
GI50 (OVCAR-3): 7.59 µM (inactive)
GI50 (OVCAR-4): > 100 µM (inactive)
GI50 (OVCAR-5): > 100 µM (inactive)
GI50 (OVCAR-8): 16.5 µM (inactive)
GI50 (PC-3): 72.6 µM (inactive)
GI50 (RPMI-8226): 28.6 µM (inactive)
GI50 (RXF 393): 5.56 µM (inactive)
GI50 (SF-268): 30.8 µM (inactive)
GI50 (SF-295): > 100 µM (inactive)
GI50 (SF-539): 19.7 µM (inactive)
GI50 (SK-MEL-28): > 100 µM (inactive)
GI50 (SK-MEL-5): > 100 µM (inactive)
GI50 (SK-OV-3): > 100 µM (inactive)
GI50 (SN12C): 95.5 µM (inactive)
GI50 (SNB-19): 68.2 µM (inactive)
GI50 (SR): 54.8 µM (inactive)
GI50 (SW-620): > 100 µM (inactive)
GI50 (T47D): 38.1 µM (inactive)
GI50 (TK-10): 66.8 µM (inactive)
GI50 (UACC-257): > 100 µM (inactive)
GI50 (UACC-62): > 100 µM (inactive)
